Patent US10526327B2, “Histone demethylase inhibitors” (CELGENE QUANTICEL RESEARCH, INC., priority 2013, dated 2020)

Assays:
KDM5A/B = experiment: In vitro cell-based assay: immuno-blot quantification of tri-methyl H3K4 in ZR-75-1 breast cancer cells; conditions: 72 hours, tri-methyl H3K4 level relative to GAPDH, percent of DMSO, read-out: Cellular IC50
Source text: An assay to measure the degree of cellular inhibition of KDM5A and 5B was developed. This quantitative immuno-blotting assay measures the amount tri-methylated histone H3 at amino acid Lysine number 4, a specific substrate […] of the direct enzymatic activity of the histone demethylases KDM5A and KDM5B from extracts of the ZR-75-1 breast cancer cell line.
This assay is a fluorometric immunoassay for the quantification of tri-methyl H3K4 extracted from cells treated with test compound and is used as a measure of the cellular inhibition of KDM5A/B.
ZR-75-1 (PTEN null, ER+) breast cancer cells numbering 50,000 (ATCC) were seeded into each well of a 96-well tissue culture treated plate and then exposed to an 11 point dilution of test compound with final concentration ranges of test compound ranging from 1250 μM to 10 nM. Cells were left in the presence of test compound for 72 hours. Extracts were prepared containing all of the cellular histone material using detergent based lysis and sonication methods. These lysates were subsequently normalized for total protein content using a colorimetric bicinchonic acid assay (MicroBCA Pierce/Thermo Scientific). Normalized cell extracts were then subjected to typical immuno-blotting procedures using NuPage reagents (Life Technologies). Electrophoretically separated histones were then transferred and immobilized using polyvinylidene difluoride membrane (Immobilon-FL Millipore). The amount of tri-methylated lysine 4 of histone H3 was detected using an antibody specific to the tri-methylated state (Cell Signaling Technologies) and quantified on an infrared imager using a densitometry software package (Odyssey CLx, Image Studio, Li-Cor). This background subtracted densitometry value was reported as a ration of the GAPDH amount for that sample and then calculated as a percent of the DMSO treated sample. The software package XL-fit (IDBS) was then used to calculate a relative IC50 value for the dilution series of a given test compound according to the equation: fit=(D+((Vmax*(x^n))/((x^n)+(Km^n)))).

Jarid1A = biological target: T1, Jarid1A (Homo sapiens, UniProt P29375); experiment: Jarid1A in vitro enzyme inhibition assay (TR-FRET); assay type: biochemical
T1 construct: purchased BPS Bioscience 50110
T1 sequence (P29375 1-1090): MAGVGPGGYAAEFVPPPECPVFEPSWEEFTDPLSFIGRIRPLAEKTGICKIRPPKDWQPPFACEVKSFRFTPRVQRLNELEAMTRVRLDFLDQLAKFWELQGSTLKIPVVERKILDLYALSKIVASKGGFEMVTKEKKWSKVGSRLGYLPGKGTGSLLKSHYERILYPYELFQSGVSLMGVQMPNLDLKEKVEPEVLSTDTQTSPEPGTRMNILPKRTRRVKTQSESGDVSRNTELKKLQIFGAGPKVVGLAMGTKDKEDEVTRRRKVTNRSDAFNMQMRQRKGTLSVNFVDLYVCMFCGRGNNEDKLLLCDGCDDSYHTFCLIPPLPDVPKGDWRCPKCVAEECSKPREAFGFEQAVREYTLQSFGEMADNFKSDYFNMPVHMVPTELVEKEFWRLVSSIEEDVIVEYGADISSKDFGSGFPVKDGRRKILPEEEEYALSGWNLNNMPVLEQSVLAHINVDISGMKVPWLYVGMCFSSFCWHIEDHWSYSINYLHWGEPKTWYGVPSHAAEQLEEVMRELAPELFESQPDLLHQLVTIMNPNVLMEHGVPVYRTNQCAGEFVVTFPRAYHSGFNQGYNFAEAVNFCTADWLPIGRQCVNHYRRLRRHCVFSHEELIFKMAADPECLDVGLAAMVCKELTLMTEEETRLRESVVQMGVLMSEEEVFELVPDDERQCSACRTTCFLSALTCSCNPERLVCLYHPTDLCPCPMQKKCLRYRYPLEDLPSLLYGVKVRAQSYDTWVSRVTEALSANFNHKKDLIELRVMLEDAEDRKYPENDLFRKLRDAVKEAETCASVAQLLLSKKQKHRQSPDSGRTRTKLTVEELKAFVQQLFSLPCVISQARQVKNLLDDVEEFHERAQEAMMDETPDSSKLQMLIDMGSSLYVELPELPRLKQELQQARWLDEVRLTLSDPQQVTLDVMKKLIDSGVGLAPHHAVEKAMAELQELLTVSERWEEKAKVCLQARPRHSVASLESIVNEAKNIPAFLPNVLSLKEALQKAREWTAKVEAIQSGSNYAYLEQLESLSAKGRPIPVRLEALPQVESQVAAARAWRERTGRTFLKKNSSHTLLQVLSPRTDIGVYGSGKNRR
Outline: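 Demethylation of 300 nM biotin-H3K4me3 peptide by 1 nM baculovirus-expressed Jarid1A (aa 1–1090) with 2 μM α-ketoglutarate, Fe(II) and ascorbate, pH 7.3, 30 min at room temperature. Stopped with EDTA; H3K4me1-2 product detected by TR-FRET (Eu anti-H3K4me1-2/streptavidin-APC). IC50 fitted from 665/615 ratio over 11-point dilutions.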

CCc1cccc(Oc2nc(O)c3ccncc3n2)c1 [Example 57, 2-(3-ethylphenoxy)pyrido[3,4-d]pyrimidin-4-ol] was tested, and the IC50 (KDM5A/B) was greater than 10 µM and the IC50 (Jarid1A) was no more than 0.1 µM.

For Oc1nc(Oc2cnn(Cc3ccccc3)c2)nc2cnccc12 [Example 66, 2-[(1-benzyl-1H-pyrazol-4-yl)oxy]pyrido[3,4-d]pyrimidin-4-ol], the IC50 (KDM5A/B) was 1 to 10 µM and the IC50 (Jarid1A) was no more than 0.1 µM.

In the case of CCOc1nc(O)c2ccnc(-c3cn(C)cn3)c2n1 [Example 69, 2-ethoxy-8-(1-methyl-1H-imidazol-4-yl)pyrido[3,4-d]pyrimidin-4-ol], the IC50 (KDM5A/B) is reported as greater than 10 µM and the IC50 (Jarid1A) is reported as no more than 0.1 µM.

Cn1cnc(-c2nccc3c(O)nc(OCC(F)(F)F)nc23)c1 [Example 70, 8-(1-methyl-1H-imidazol-4-yl)-2-(2,2,2-trifluoroethoxy)pyrido[3,4-d]pyrimidin-4-ol] was tested, and the IC50 (KDM5A/B) was 1 to 10 µM and the IC50 (Jarid1A) was no more than 0.1 µM.

For Cn1cnc(-c2nccc3c(O)nc(OCc4ccc(F)cc4)nc23)c1 [Example 71, 2-[(4-fluorobenzyl)oxy]-8-(1-methyl-1H-imidazol-4-yl)pyrido[3,4-d]pyrimidin-4-ol], the IC50 (KDM5A/B) was 1 to 10 µM and the IC50 (Jarid1A) was no more than 0.1 µM.

Cn1cnc(-c2nccc3c(O)nc(OCC4CC4)nc23)c1 [Example 72, 2-(cyclopropylmethoxy)-8-(1-methylimidazol-4-yl)pyrido[3,4-d]pyrimidin-4-ol] gave an IC50 (KDM5A/B) of 1 to 10 µM and an IC50 (Jarid1A) of no more than 0.1 µM.

Cn1cnc(-c2nccc3c(O)nc(OCCCC(F)(F)F)nc23)c1 [Example 74, 8-(1-methylimidazol-4-yl)-2-(4,4,4-trifluorobutoxy)pyrido[3,4-d]pyrimidin-4-ol] was tested, and the IC50 (KDM5A/B) was 0.1 to 1 µM and the IC50 (Jarid1A) was no more than 0.1 µM.

Cn1cnc(-c2nccc3c(O)nc(OCCO)nc23)c1 [Example 75, 2-(2-hydroxyethoxy)-8-(1-methylimidazol-4-yl)pyrido[3,4-d]pyrimidin-4-ol] gave an IC50 (KDM5A/B) greater than 10 µM and an IC50 (Jarid1A) of no more than 0.1 µM.

With Oc1nc(Oc2cnn(Cc3ccc(F)cc3)c2)nc2cnccc12 [Example 86, 2-[1-(4-fluorobenzyl)pyrazol-4-yl]oxypyrido[3,4-d]pyrimidin-4-ol] the IC50 (KDM5A/B) was 1 to 10 µM and the IC50 (Jarid1A) was no more than 0.1 µM.

Oc1nc(Oc2cnn(Cc3ccccc3F)c2)nc2cnccc12 [Example 87, 2-[1-(2-fluorobenzyl)pyrazol-4-yl]oxypyrido[3,4-d]pyrimidin-4-ol] was tested, and the IC50 (KDM5A/B) was 0.1 to 1 µM and the IC50 (Jarid1A) was no more than 0.1 µM.

With CC(C)(C)OC(=O)N1CCC(n2cc(Oc3nc(O)c4ccncc4n3)cn2)CC1 [Example 88, tert-butyl 4-[4-(4-hydroxypyrido[3,4-d]pyrimidin-2-yl)oxypyrazol-1-yl]piperidine-1-carboxylate] the IC50 (KDM5A/B) was 1 to 10 µM and the IC50 (Jarid1A) was no more than 0.1 µM.

Oc1nc(Oc2cnn(C3CCNCC3)c2)nc2cnccc12 [Example 89, 2-(1-piperidin-4-ylpyrazol-4-yl)oxypyrido[3,4-d]pyrimidin-4-ol] gave an IC50 (KDM5A/B) of 1 to 10 µM and an IC50 (Jarid1A) of no more than 0.1 µM.
